# Source: ChEMBL document CHEMBL4673219, “Novel 5,6-disubstituted pyrrolo[2,3-d]pyrimidine derivatives as broad spectrum antiproliferative agents: Synthesis, cell based assays, kinase profile and molecular docking study” (Bioorg Med Chem, 2018)
# Tests used:
# Type in all cases: functional
# MCF7 [1] = assay: Antiproliferative activity against human MCF7 cells assessed as cell growth inhibition at 10 uM measured after 72 hrs by MTT assay relative to control; conditions: read-out: GI
# HCT-116 [2] = assay: Antiproliferative activity against human HCT-116 cells assessed as cell growth inhibition at 10 uM measured after 72 hrs by MTT assay relative to control; conditions: read-out: GI
# SK-BR-3 [3] = assay: Antiproliferative activity against human SK-BR-3 cells assessed as cell growth inhibition at 10 uM measured after 72 hrs by MTT assay relative to control; conditions: read-out: GI
# MCF7 [4] = assay: Antiproliferative activity against human MCF7 cells assessed as cell growth inhibition measured after 72 hrs by MTT assay
# HCT-116 [5] = assay: Antiproliferative activity against human HCT-116 cells assessed as cell growth inhibition measured after 72 hrs by MTT assay
# SK-BR-3 [6] = assay: Antiproliferative activity against human SK-BR-3 cells assessed as cell growth inhibition measured after 72 hrs by MTT assay
SMILES,inhibition of growth at 10 µM (MCF7 [1]),inhibition of growth at 10 µM (HCT-116 [2]),inhibition of growth at 10 µM (SK-BR-3 [3]),GI50 (MCF7 [4]),GI50 (HCT-116 [5]),GI50 (SK-BR-3 [6])
Nc1nc2[nH]c(CN3CCN(Cc4ccccc4)CC3)c(CN3CCN(Cc4ccccc4)CC3)c2c(=O)[nH]1,21.2%,21.4%,15.7%,,,
CCCCCCCC(=O)Nc1nc2[nH]cc(CN3CCN(C)CC3)c2c(=O)[nH]1,59.6%,51%,50.4%,,,
Nc1nc2[nH]cc(CN3CCN(C(c4ccccc4)c4ccccc4)CC3)c2c(=O)[nH]1,79.5%,80.5%,4.22%,33.9 µM,20.3 µM,
CCCCCCCC(=O)Nc1nc2[nH]cc(CN3CCC(NC(=O)OC(C)(C)C)CC3)c2c(=O)[nH]1,36.5%,50.3%,59.3%,,,
CCCCCCCC(=O)Nc1nc2[nH]cc(CN3CCN(c4ccccc4C#N)CC3)c2c(=O)[nH]1,59.2%,79.5%,84.6%,,1.46 µM,0.97 µM
CCCCCCCC(=O)Nc1nc2[nH]cc(CN3CCN(c4cccc(Cl)c4)CC3)c2c(=O)[nH]1,43.4%,72.7%,69.7%,,7.17 µM,0.95 µM
CCCCCCCC(=O)Nc1nc2[nH]cc(CN3CCCCC3)c2c(=O)[nH]1,70.2%,51.1%,77.1%,13.4 µM,14.9 µM,15 µM
COc1c(C)cnc(Cn2cnc3c(Cl)nc(N)nc32)c1C [BIIB021],84.8%,86.2%,71.9%,0.392 µM,,0.347 µM
CCCCCCCC(=O)Nc1nc2[nH]cc(CN3CCN(c4ccccc4)CC3)c2c(=O)[nH]1,50.3%,73.9%,67.6%,,3.99 µM,0.63 µM
CCCCCCCC(=O)Nc1nc2[nH]cc(CN3CCN(CCO)CC3)c2c(=O)[nH]1,42%,67.3%,62.2%,,,
Nc1nc(O)c2c(CN3CCCCC3)c[nH]c2n1,23.8%,24.1%,17.5%,,,
Nc1nc2[nH]c(CN3CCN(Cc4cccc(F)c4)CC3)c(CN3CCN(Cc4cccc(F)c4)CC3)c2c(=O)[nH]1,16.1%,13.6%,10.5%,,,
Nc1nc2[nH]cc(CN3CCN(CCO)CC3)c2c(=O)[nH]1,18.8%,17.8%,32.8%,,,
COc1ccc(N2CCN(Cc3c[nH]c4nc(N)[nH]c(=O)c34)CC2)cc1,51.7%,69.2%,57.5%,,,11.2 µM
CCCCCCCC(=O)Nc1nc2[nH]cc(CN3CCN(c4ccc(OC)cc4)CC3)c2c(=O)[nH]1,49.2%,71.4%,71.4%,,8.94 µM,1.23 µM
Nc1nc2[nH]cc(CN3CCN(c4cccc(Cl)c4)CC3)c2c(=O)[nH]1,54.2%,79.3%,67.5%,,7.66 µM,8.28 µM
CCCCCCCC(=O)Nc1nc2[nH]cc(Cn3ccnc3)c2c(=O)[nH]1,68.2%,80.5%,86.1%,,,
Nc1nc2[nH]cc(CN3CCN(c4ccccc4)CC3)c2c(=O)[nH]1,49.7%,49%,30.7%,,,
CCCCCCCC(=O)Nc1nc2[nH]cc(CN3CCN(CCN4CCOCC4)CC3)c2c(=O)[nH]1,88.6%,93%,90.4%,,,

SMILES,inhibition of growth at 10 µM (MCF7 [1]),inhibition of growth at 10 µM (HCT-116 [2]),inhibition of growth at 10 µM (SK-BR-3 [3]),GI50 (MCF7 [4]),GI50 (HCT-116 [5]),GI50 (SK-BR-3 [6])
CCCCCCCC(=O)Nc1nc2[nH]c(CN3CCN(c4cc(Cl)cc(Cl)c4)CC3)c(CN3CCN(c4cc(Cl)cc(Cl)c4)CC3)c2c(=O)[nH]1,10.7%,6.88%,42.5%,,,
CCCCCCCC(=O)Nc1nc2[nH]c(CN3CCN(C(c4ccccc4)c4ccccc4)CC3)c(CN3CCN(C(c4ccccc4)c4ccccc4)CC3)c2c(=O)[nH]1,15.2%,41.5%,67.3%,,18.4 µM,6.43 µM
Nc1nc2[nH]c(CN3CCN(Cc4ccc(F)cc4)CC3)c(CN3CCN(Cc4ccc(F)cc4)CC3)c2c(=O)[nH]1,18.4%,23%,23.2%,,,
CCCCCCCC(=O)Nc1nc2[nH]cc(CN3CCN(C(C)=O)CC3)c2c(=O)[nH]1,35.8%,43.8%,40.2%,,,
CCCCCCCC(=O)Nc1nc2[nH]c(CN3CCN(c4ccc([N+](=O)[O-])cc4)CC3)c(CN3CCN(c4ccc([N+](=O)[O-])cc4)CC3)c2c(=O)[nH]1,12.6%,27%,64.6%,,,
CCCCCCCC(=O)Nc1nc2[nH]cc(CN3CCN(C(c4ccccc4)c4ccccc4)CC3)c2c(=O)[nH]1,58.4%,75.5%,67.4%,,1.01 µM,0.41 µM
CCCCCCCC(=O)Nc1nc2[nH]cc(CN3CCN(C(=O)c4ccco4)CC3)c2c(=O)[nH]1,68.5%,60.2%,71.2%,,,
Nc1nc2[nH]cc(CN3CCN(CCN4CCOCC4)CC3)c2c(=O)[nH]1,19.5%,15.4%,27.1%,,,
Nc1nc2[nH]c(CN3CCN(Cc4ccccc4F)CC3)c(CN3CCN(Cc4ccccc4F)CC3)c2c(=O)[nH]1,8.91%,12.8%,59%,,,
Nc1nc2[nH]cc(CN3CCN(Cc4cccc(F)c4)CC3)c2c(=O)[nH]1,20.6%,31.1%,16.8%,,,
CCCCCCCC(=O)Nc1nc2[nH]cc(CN3CCN(c4ccc([N+](=O)[O-])cc4)CC3)c2c(=O)[nH]1,40.4%,68.5%,61.6%,,,8.04 µM
CN1CCN(Cc2c[nH]c3nc(N)[nH]c(=O)c23)CC1,20.2%,16.5%,29%,,,
Nc1nc2[nH]cc(CN3CCN(c4ccc([N+](=O)[O-])cc4)CC3)c2c(=O)[nH]1,26.8%,28.5%,27.5%,,,
Nc1nc2[nH]cc(Cn3ccnc3)c2c(=O)[nH]1,38.8%,50.6%,38.8%,,,
CC(=O)N1CCN(Cc2c[nH]c3nc(N)[nH]c(=O)c23)CC1,16.2%,13.8%,24.2%,,,
Nc1nc2[nH]c(CN3CCN(c4ccc([N+](=O)[O-])cc4)CC3)c(CN3CCN(c4ccc([N+](=O)[O-])cc4)CC3)c2c(=O)[nH]1,1.26%,1.94%,6.79%,,,
Nc1nc2[nH]c(CN3CCN(C(c4ccccc4)c4ccccc4)CC3)c(CN3CCN(C(c4ccccc4)c4ccccc4)CC3)c2c(=O)[nH]1,13.8%,10.7%,11.1%,,,
N#Cc1ccccc1N1CCN(Cc2c[nH]c3nc(N)[nH]c(=O)c23)CC1,51.1%,72%,73.8%,,8.37 µM,23.7 µM
